# Where “and” joins values, the source holds several entries; their conditions need not be identical. Equal entries are not always repeated.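 In this assay, cells in 96-well plates receive the compound at five concentrations for 48 hours. Endpoints are linearly interpolated between the surrounding concentrations. GI50 = concentration required for 50% inhibition of growth. TGI denotes the concentration required for complete inhibition of growth.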
# Key:
# Assay in all cases: DTP human tumour cell line panel, 48 h
# RPMI-8226 leukemia = system: RPMI-8226 leukemia
# NCI/ADR-RES ovarian = system: NCI/ADR-RES ovarian
# RXF 393 renal = system: RXF 393 renal
# OVCAR-4 ovarian = system: OVCAR-4 ovarian
# ACHN renal = system: ACHN renal
# CCRF-CEM leukemia = system: CCRF-CEM leukemia
# HT29 colon = system: HT29 colon
# HL-60(TB) leukemia = system: HL-60(TB) leukemia
# SW-620 colon = system: SW-620 colon
# KM12 colon = system: KM12 colon
# DU-145 prostate = system: DU-145 prostate
# NCI-H23 lung = system: NCI-H23 lung
# OVCAR-8 ovarian = system: OVCAR-8 ovarian
# HCT-116 colon = system: HCT-116 colon
# SK-MEL-28 melanoma = system: SK-MEL-28 melanoma
# HCT-15 colon = system: HCT-15 colon
# NCI-H522 lung = system: NCI-H522 lung
# MDA-MB-435 = system: MDA-MB-435
# MCF7 breast = system: MCF7 breast
# OVCAR-5 ovarian = system: OVCAR-5 ovarian
# SR leukemia = system: SR leukemia
# T-47D breast = system: T-47D breast
# MOLT-4 leukemia = system: MOLT-4 leukemia
# 786-0 renal = system: 786-0 renal
# A549 NSCLC = system: A549 NSCLC
# MDA-MB-231 breast = system: MDA-MB-231 breast
# MALME-3M melanoma = system: MALME-3M melanoma
# U251 CNS = system: U251 CNS
# M14 melanoma = system: M14 melanoma
# HCC-2998 colon = system: HCC-2998 colon
smiles,measurement,setting,value
CC(=O)Oc1cc2c(OC(C)=O)c(-c3c(C)cc4c(C(C)C)c(OC(C)=O)c(OC(C)=O)cc4c3OC(C)=O)c(C)cc2c(C(C)C)c1OC(C)=O,GI50,RPMI-8226 leukemia,5.36 µM and 5.79 µM and 7.94 µM
same,TGI,RPMI-8226 leukemia,14 µM and 15.4 µM and 20.4 µM
same,GI50,NCI/ADR-RES ovarian,7.87 µM and 8.95 µM and 20 µM
same,TGI,NCI/ADR-RES ovarian,33.1 µM and 32.7 µM and > 55.3 µM
same,GI50,RXF 393 renal,14 µM and 16.3 µM and 4.05 µM
same,TGI,RXF 393 renal,30.6 µM and 34.5 µM and 14.9 µM
same,TGI,OVCAR-4 ovarian,32 µM and > 69.6 µM and > 84.2 µM
same,GI50,ACHN renal,5.56 µM and 4.86 µM and 8.79 µM
same,TGI,ACHN renal,13.2 µM and 11.6 µM and 22.8 µM
same,GI50,CCRF-CEM leukemia,0.707 µM and 5.41 µM and 5.98 µM
same,TGI,CCRF-CEM leukemia,4.04 µM and 15.6 µM and 20.7 µM
same,TGI,HT29 colon,40.2 µM and > 74.8 µM and 62.7 µM
same,GI50,HL-60(TB) leukemia,13.1 µM and 3.07 µM and 4.8 µM
same,TGI,HL-60(TB) leukemia,33.2 µM and 9.99 µM and 16.2 µM
same,GI50,SW-620 colon,19.6 µM and 4.74 µM and 9.38 µM
same,TGI,SW-620 colon,43.7 µM and 9.61 µM and 22.5 µM
same,GI50,KM12 colon,4.83 µM and 5.02 µM and 9.12 µM
same,TGI,KM12 colon,10.6 µM and 10.2 µM and 21.3 µM
same,GI50,DU-145 prostate,5.3 µM and 5.17 µM and 9.94 µM
same,TGI,DU-145 prostate,11.1 µM and 10.2 µM and 23.6 µM
same,GI50,NCI-H23 lung,5.06 µM and 5.46 µM and 8.84 µM
same,TGI,NCI-H23 lung,9.63 µM and 9.93 µM and 19.1 µM
same,GI50,OVCAR-8 ovarian,6.44 µM and 5.89 µM and 11.8 µM
same,TGI,OVCAR-8 ovarian,19.1 µM and 17.6 µM and > 57.6 µM
same,GI50,HCT-116 colon,6.22 µM and 6.63 µM and 7.46 µM
same,TGI,HCT-116 colon,14.3 µM and 15.9 µM and 14.4 µM
same,GI50,SK-MEL-28 melanoma,5.12 µM and 15.3 µM and 18.8 µM
same,TGI,SK-MEL-28 melanoma,12.4 µM and 35.1 µM and 41.1 µM
same,GI50,HCT-15 colon,4.94 µM and 5.21 µM and 7.97 µM
same,TGI,HCT-15 colon,9.98 µM and 10.5 µM and 18.2 µM
same,GI50,NCI-H522 lung,5.15 µM and 1.52 µM and 5.49 µM
same,TGI,NCI-H522 lung,10.5 µM and 3.23 µM and 11.5 µM
same,GI50,MDA-MB-435,8.13 µM and 6.8 µM and 10.1 µM
same,TGI,MDA-MB-435,26.8 µM and 14.1 µM and 22.7 µM
same,GI50,MCF7 breast,6.42 µM and 7.03 µM and 10.3 µM
same,TGI,MCF7 breast,19.5 µM and 21.5 µM and 27.1 µM
same,GI50,OVCAR-5 ovarian,5.86 µM and 5.87 µM and 9.81 µM
same,TGI,OVCAR-5 ovarian,13.6 µM and 12.9 µM and 25 µM
same,GI50,SR leukemia,28.3 µM and 6.93 µM
same,TGI,SR leukemia,> 100 µM and 21.4 µM
same,GI50,T-47D breast,> 100 µM and 10.2 µM and 19.1 µM
same,TGI,T-47D breast,> 100 µM and > 25.2 µM and 36.1 µM
same,GI50,MOLT-4 leukemia,4.48 µM and 23.6 µM and 6.76 µM
same,TGI,MOLT-4 leukemia,14.9 µM and > 100 µM and 21.2 µM
same,GI50,786-0 renal,7.26 µM and 6.91 µM and 11.4 µM
same,TGI,786-0 renal,20.8 µM and 16.5 µM and 35.4 µM
same,GI50,A549 NSCLC,14.7 µM and 5.12 µM and 9.61 µM
same,TGI,A549 NSCLC,30.7 µM and 9.92 µM and 22.2 µM
same,GI50,MDA-MB-231 breast,0.67 µM and 1.58 µM and 3.63 µM
same,TGI,MDA-MB-231 breast,2.08 µM and 7.6 µM and 12.4 µM
same,GI50,MALME-3M melanoma,5.49 µM and 5.36 µM and 9.03 µM
same,TGI,MALME-3M melanoma,13.8 µM and 13.7 µM and 23.7 µM
same,GI50,U251 CNS,4.84 µM and 4.85 µM and 9.43 µM
same,TGI,U251 CNS,9.38 µM and 24.7 µM and 35.7 µM
same,GI50,M14 melanoma,6.75 µM and 5.89 µM and 8.15 µM
same,TGI,M14 melanoma,18.5 µM and 12.5 µM and 19.3 µM
same,GI50,HCC-2998 colon,4.23 µM and 5.12 µM and 18.4 µM

# Source: PubChem BioAssay (NCI)
